Assay results from patent US20260207602A1, “EGFR INHIBITORS” (Blueprint Medicines Corporation, priority 2022, published 2026).

Legend:
[1] = molecular target: intracellular phosphorylation of EGFR (Tyr1068) in PC-9 cells (Homo sapiens, UniProt P00533, DEL746-750); assay: PC-9 pEGFR AlphaLISA assay; format: cell-based; settings: 4 hours incubation, read-out: Phos EGFR PC9 IC50
In short: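 PC-9 cells (EGFR del746-750) in phenol-free DMEM/10% FBS, adhered overnight, then exposed to 10-point 4-fold compound dilutions for 4 h at 37 °C. Lysates assayed for pEGFR Tyr1068 by AlphaLISA SureFire Ultra; IC50 from percent pEGFR inhibition vs log concentration.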

EGFR (d746-750) = molecular target: T1, EGFR (d746-750) (Homo sapiens, UniProt P00533, DEL746-750); assay: Biochemical EGFR inhibition assay (Caliper mobility shift), EGFR (d746-750); settings: biochemical Caliper mobility shift assay, EGFR Exon 19-del enzyme; read-out: Enz EGFR Exon 19-del IC50
T1 construct: purchased SignalChem E10-122JG
In short: (§1)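 Compounds were titrated against enzyme phosphorylating a 5-FAM peptide (2.5 µM) in 100 mM HEPES, pH 7.5, 10 mM MgCl2, 1 mM DTT. ATP was held at 1.0 mM or at Km, and reactions ran at 25 °C until 10–20% conversion before EDTA quench. Apparent IC50 values come from percent activity plotted against log concentration.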

EGFR L858R = molecular target: T2, EGFR L858R (Homo sapiens, UniProt P00533, L858R); assay: Biochemical EGFR inhibition assay (Caliper mobility shift), EGFR L858R; settings: biochemical Caliper mobility shift assay, EGFR L858R enzyme; read-out: Enz EGFR L858R IC50
T2 construct: purchased SignalChem E10-122BG
In short: as §1

T2 sequence (P00533 25-1210 L858R): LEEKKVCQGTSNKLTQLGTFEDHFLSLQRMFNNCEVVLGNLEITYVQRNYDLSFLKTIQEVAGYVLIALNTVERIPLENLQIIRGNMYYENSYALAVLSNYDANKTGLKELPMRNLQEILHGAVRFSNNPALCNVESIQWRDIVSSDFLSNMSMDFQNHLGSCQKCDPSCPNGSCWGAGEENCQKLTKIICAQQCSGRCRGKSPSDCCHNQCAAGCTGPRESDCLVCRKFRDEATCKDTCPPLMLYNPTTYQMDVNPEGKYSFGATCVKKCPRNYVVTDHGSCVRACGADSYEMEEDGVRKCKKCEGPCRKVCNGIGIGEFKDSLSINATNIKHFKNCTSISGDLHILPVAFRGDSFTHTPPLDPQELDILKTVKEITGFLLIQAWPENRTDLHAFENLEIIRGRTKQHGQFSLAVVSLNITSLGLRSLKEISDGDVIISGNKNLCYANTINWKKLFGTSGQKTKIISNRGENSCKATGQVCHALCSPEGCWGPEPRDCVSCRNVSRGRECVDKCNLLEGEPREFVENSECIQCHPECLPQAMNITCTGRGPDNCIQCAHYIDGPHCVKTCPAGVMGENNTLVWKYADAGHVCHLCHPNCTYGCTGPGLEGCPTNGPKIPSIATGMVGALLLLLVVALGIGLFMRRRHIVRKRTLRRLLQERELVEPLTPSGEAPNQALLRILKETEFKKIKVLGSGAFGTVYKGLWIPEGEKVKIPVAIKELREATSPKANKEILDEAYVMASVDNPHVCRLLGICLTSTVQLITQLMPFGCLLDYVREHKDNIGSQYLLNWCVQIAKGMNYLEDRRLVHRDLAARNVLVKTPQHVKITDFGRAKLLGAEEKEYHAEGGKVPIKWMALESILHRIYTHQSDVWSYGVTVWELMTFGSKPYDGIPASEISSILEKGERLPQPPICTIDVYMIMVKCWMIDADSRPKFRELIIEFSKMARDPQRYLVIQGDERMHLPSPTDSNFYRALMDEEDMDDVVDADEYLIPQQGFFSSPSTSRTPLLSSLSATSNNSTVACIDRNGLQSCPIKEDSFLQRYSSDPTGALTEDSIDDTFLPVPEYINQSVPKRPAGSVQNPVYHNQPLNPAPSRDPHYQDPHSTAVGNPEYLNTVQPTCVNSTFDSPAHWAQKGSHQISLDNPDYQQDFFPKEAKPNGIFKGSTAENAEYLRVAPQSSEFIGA
T1 sequence (P00533 with tags, fused parts or gaps DEL746-750 limits assumed): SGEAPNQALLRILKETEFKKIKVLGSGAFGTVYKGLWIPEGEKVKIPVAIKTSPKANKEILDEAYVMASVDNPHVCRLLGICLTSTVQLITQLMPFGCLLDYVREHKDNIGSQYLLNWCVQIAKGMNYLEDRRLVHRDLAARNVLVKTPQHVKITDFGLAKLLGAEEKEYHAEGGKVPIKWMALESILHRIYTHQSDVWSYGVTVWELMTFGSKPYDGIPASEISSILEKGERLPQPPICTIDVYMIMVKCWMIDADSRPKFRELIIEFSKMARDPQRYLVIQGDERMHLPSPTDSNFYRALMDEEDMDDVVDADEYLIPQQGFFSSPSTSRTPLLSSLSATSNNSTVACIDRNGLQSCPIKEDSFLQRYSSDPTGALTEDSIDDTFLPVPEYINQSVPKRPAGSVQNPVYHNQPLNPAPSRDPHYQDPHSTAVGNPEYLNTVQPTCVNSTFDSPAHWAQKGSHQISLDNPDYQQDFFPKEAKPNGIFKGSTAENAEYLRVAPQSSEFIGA
Chain of intracellular phosphorylation of EGFR (Tyr1068) in PC-9 cells (P00533 with tags, fused parts or gaps DEL746-750): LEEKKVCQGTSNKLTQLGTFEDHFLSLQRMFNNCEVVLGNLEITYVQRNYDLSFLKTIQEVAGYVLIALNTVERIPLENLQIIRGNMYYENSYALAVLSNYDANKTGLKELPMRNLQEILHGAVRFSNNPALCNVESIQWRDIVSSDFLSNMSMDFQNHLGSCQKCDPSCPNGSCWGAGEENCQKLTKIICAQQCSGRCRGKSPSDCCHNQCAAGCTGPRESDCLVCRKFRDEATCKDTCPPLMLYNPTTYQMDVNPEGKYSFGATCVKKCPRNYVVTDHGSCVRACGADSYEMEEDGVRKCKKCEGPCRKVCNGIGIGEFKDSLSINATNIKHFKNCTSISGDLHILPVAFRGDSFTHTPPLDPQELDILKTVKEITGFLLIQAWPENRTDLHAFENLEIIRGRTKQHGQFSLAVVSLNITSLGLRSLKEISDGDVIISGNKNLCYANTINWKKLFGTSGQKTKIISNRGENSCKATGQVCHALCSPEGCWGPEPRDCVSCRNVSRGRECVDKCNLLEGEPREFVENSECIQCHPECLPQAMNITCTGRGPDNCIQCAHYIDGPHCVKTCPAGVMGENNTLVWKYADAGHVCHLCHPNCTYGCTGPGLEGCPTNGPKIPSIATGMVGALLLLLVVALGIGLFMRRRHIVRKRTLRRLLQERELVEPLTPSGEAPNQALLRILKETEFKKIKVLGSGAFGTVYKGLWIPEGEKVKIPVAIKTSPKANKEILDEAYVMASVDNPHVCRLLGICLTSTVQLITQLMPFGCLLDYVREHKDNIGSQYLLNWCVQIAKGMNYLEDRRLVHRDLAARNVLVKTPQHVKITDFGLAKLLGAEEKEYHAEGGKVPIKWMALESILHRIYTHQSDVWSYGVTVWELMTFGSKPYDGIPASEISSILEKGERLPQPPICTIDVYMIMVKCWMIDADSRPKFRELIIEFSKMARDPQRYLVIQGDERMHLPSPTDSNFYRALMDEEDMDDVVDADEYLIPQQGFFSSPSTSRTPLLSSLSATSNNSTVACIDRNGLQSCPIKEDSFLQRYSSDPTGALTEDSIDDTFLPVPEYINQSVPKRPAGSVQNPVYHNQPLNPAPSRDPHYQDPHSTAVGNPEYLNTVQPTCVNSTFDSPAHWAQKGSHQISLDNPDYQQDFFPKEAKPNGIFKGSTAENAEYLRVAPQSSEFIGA

Row | SMILES | IC50 [1] | IC50 (EGFR (d746-750)) | IC50 (EGFR L858R)
1 | CN1CCC[C@H](Oc2cc(-c3cnn(C)c3)cc3ncnc(Nc4ccc5ncsc5c4F)c23)C1 [Example 69, (S)-7-fluoro-N-(7-(1-methyl-1H-pyrazol-4-yl)-5-((1-methylpiperidin-3-yl)oxy)quinazolin-4-yl)benzo[d]thiazol-6-amine] | ≤ 0.01 µM | ≤ 0.01 µM | ≤ 0.01 µM
2 | COC[C@H](C)Oc1cc(N2CCN(C)CC2)cc2ncnc(Nc3ccc4ncsc4c3)c12 (single isomer, unassigned) [Example 205] | 0.0101 to 0.05 µM | ≤ 0.01 µM | ≤ 0.01 µM
3 | Cn1cc(-c2cc(OC3CCCOC3)c3c(Nc4ccc5ncsc5c4)ncnc3c2)cn1 (single isomer, unassigned) [Example 7] | 0.0101 to 0.05 µM | ≤ 0.01 µM | ≤ 0.01 µM
4 | CN1CCC2(COC2)[C@H](Oc2cc(-c3cnn(C)c3)cc3ncnc(Nc4ccc5ncsc5c4)c23)C1 (single isomer, unassigned) [Example 354] | 0.0101 to 0.05 µM | ≤ 0.01 µM | 0.0101 to 0.05 µM
5 | CN1CC[C@H](Oc2cc(-c3cnn(C)c3)cc3ncnc(Nc4ccc5ncsc5c4)c23)C1 [Example 34, (S)-N-(7-(1-methyl-1H-pyrazol-4-yl)-5-((1-methylpyrrolidin-3-yl)oxy)quinazolin-4-yl)benzo[d]thiazol-6-amine] | 0.0101 to 0.05 µM | ≤ 0.01 µM | 0.0101 to 0.05 µM
6 | CC(C)(O)Cn1cc(-c2cc(OC3CCOCC3)c3c(Nc4ccc5ncsc5c4)ncnc3c2)cn1 [Example 190, 1-(4-(4-(benzo[d]thiazol-6-ylamino)-5-((tetrahydro-2H-pyran-4-yl)oxy)quinazolin-7-yl)-1H-pyrazol-1-yl)-2-methylpropan-2-ol] | ≤ 0.01 µM | ≤ 0.01 µM | ≤ 0.01 µM
7 | CN1C[C@H](F)C[C@H](Oc2cc(-c3cnn(C)c3)cc3ncnc(Nc4ccc5ncsc5c4)c23)C1 (single isomer, unassigned) [Example 336] | ≤ 0.01 µM | ≤ 0.01 µM | ≤ 0.01 µM
8 | CN(C)C[C@H](Oc1cc(-c2cnn(C)c2)cc2ncnc(Nc3ccc4ncsc4c3)c12)C(F)(F)F (single isomer, unassigned) [Example 178] | ≤ 0.01 µM | ≤ 0.01 µM | ≤ 0.01 µM
9 | CN(C)C[C@H](Oc1cc(-c2cnn(C)c2)cc2ncnc(Nc3ccc4ncsc4c3)c12)C(F)(F)F (single isomer, unassigned) [Example 179] | > 0.0501 µM | 0.0101 to 0.05 µM | > 0.0501 µM
10 | C[C@@H](Oc1cc(N2CCN(C)CC2)cc2ncnc(Nc3ccc4ncsc4c3F)c12)C1COC1 (single isomer, unassigned) [Example 94] | 0.0101 to 0.05 µM | ≤ 0.01 µM | ≤ 0.01 µM
11 | COc1cc2ncnc(Nc3ccc4ncsc4c3)c2cc1NC(=O)C1CCCN(C)C1 (stereo not drawn) [Example 401, N-(4-(benzo[d]thiazol-6-ylamino)-7-methoxyquinazolin-6-yl)-1-methylpiperidine-3-carboxamide] | 0.0101 to 0.05 µM | 0.0101 to 0.05 µM | 0.0101 to 0.05 µM
12 | CN1CCC(Oc2cc(-c3ccc(S(C)(=O)=O)cc3)cc3ncnc(Nc4ccc5ncsc5c4)c23)CC1 [Example 243, N-(5-((1-methylpiperidin-4-yl)oxy)-7-(4-(methylsulfonyl)phenyl)quinazolin-4-yl)benzo[d]thiazol-6-amine] | 0.0101 to 0.05 µM | 0.0101 to 0.05 µM | 0.0101 to 0.05 µM
13 | C[C@@H]1CN(c2cc(O[C@H](C)C3COC3)c3c(Nc4ccc5ncsc5c4)ncnc3c2)C[C@H](C)O1 [Example 193, N-(7-((2S,6R)-2,6-dimethylmorpholino)-5-((R)-1-(oxetan-3-yl)ethoxy)quinazolin-4-yl)benzo[d]thiazol-6-amine] | ≤ 0.01 µM | ≤ 0.01 µM | ≤ 0.01 µM
14 | CN1CC[C@@H](F)[C@@H](Oc2cc(-c3cnn(C)c3)cc3ncnc(Nc4ccc5ncsc5c4)c23)C1 (single isomer, unassigned) [Example 161] | ≤ 0.01 µM | ≤ 0.01 µM | ≤ 0.01 µM
15 | Cn1ccc(-c2cc3ncnc(Nc4ccc5ncsc5c4)c3cc2NC2CCNCC2)n1 [Example 266, N4-(benzo[d]thiazol-6-yl)-7-(1-methyl-1H-pyrazol-3-yl)-N6-(piperidin-4-yl)quinazoline-4,6-diamine] | 0.0101 to 0.05 µM | ≤ 0.01 µM | ≤ 0.01 µM
16 | COc1cc(-c2cnn(C)c2)cc2ncnc(Nc3ccc4ncsc4c3F)c12 [Example 3, 7-fluoro-N-(5-methoxy-7-(1-methyl-1H-pyrazol-4-yl)quinazolin-4-yl)benzo[d]thiazol-6-amine] | 0.0101 to 0.05 µM | ≤ 0.01 µM | ≤ 0.01 µM
17 | COCCOc1cc(O[C@H](C)C2COC2)c2c(Nc3ccc4ncsc4c3F)ncnc2c1 (single isomer, unassigned) [Example 85] | 0.0101 to 0.05 µM | ≤ 0.01 µM | ≤ 0.01 µM
18 | Cn1cc(-c2cc(O[C@@H]3CNC[C@H](F)C3)c3c(Nc4ccc5ncsc5c4)ncnc3c2)cn1 (racemic) [Example 329, cis-N-(5-(((3S,5R)-5-fluoropiperidin-3-yl)oxy)-7-(1-methyl-1H-pyrazol-4-yl)quinazolin-4-yl)benzo[d]thiazol-6-amine] | ≤ 0.01 µM | ≤ 0.01 µM | ≤ 0.01 µM
19 | CN(C)CCOc1cc(-c2cnn(C)c2)cc2ncnc(Nc3ccc4ncsc4c3)c12 [Example A60, N-(5-(2-(dimethylamino)ethoxy)-7-(1-methyl-1H-pyrazol-4-yl)quinazolin-4-yl)benzo[d]thiazol-6-amine] | 0.0101 to 0.05 µM | ≤ 0.01 µM | 0.0101 to 0.05 µM
20 | COc1nn(C)cc1-c1cc(O[C@@H]2COC[C@H]2F)c2c(Nc3ccc4ncsc4c3)ncnc2c1 (racemic) [Example 8, trans-N-(5-((-4-fluorotetrahydrofuran-3-yl)oxy)-7-(3-methoxy-1-methyl-1H-pyrazol-4-yl)quinazolin-4-yl)benzo[d]thiazol-6-amine] | 0.0101 to 0.05 µM | ≤ 0.01 µM | 0.0101 to 0.05 µM

Now from value to compound:

Row | IC50 [1] | IC50 (EGFR (d746-750)) | IC50 (EGFR L858R) | SMILES
21 | ≤ 0.01 µM | ≤ 0.01 µM | ≤ 0.01 µM | Cn1cc(-c2cc(OCC3COC3)c3c(Nc4ccc5ncsc5c4F)ncnc3c2)cn1 [Example 13, 7-fluoro-N-(7-(1-methyl-1H-pyrazol-4-yl)-5-(oxetan-3-ylmethoxy)quinazolin-4-yl)benzo[d]thiazol-6-amine]
22 | ≤ 0.01 µM | ≤ 0.01 µM | ≤ 0.01 µM | C[C@H](CN1CCC1)Oc1cc(-c2cnn(C)c2)cc2ncnc(Nc3ccc4ncsc4c3)c12 [Example 394, (R)-N-(5-((1-(azetidin-1-yl)propan-2-yl)oxy)-7-(1-methyl-1H-pyrazol-4-yl)quinazolin-4-yl)benzo[d]thiazol-6-amine]
23 | ≤ 0.01 µM | ≤ 0.01 µM | ≤ 0.01 µM | CN1CC[C@H](Oc2cc(-c3cnn(C)c3)cc3ncnc(Nc4ccc5ncsc5c4)c23)C1=O (single isomer, unassigned) [Example 23]
24 | 0.0101 to 0.05 µM | ≤ 0.01 µM | 0.0101 to 0.05 µM | Cc1cn(-c2cc(OC(C)CN(C)C)c3c(Nc4ccc5ncsc5c4)ncnc3c2)c(=O)n1C (stereo not drawn) [Example 203, 1-(4-(benzo[d]thiazol-6-ylamino)-5-((1-(dimethylamino)propan-2-yl)oxy)quinazolin-7-yl)-3,4-dimethyl-1,3-dihydro-2H-imidazol-2-one]
25 | ≤ 0.01 µM | ≤ 0.01 µM | ≤ 0.01 µM | CN1CC[C@@H]2CN(C(=O)Nc3cc4c(Nc5ccc6ncsc6c5)ncnc4cc3-c3ccn(C)n3)C[C@@H]21 [Example 252, (3aR,6aR)-N-(4-(benzo[d]thiazol-6-ylamino)-7-(1-methyl-1H-pyrazol-3-yl)quinazolin-6-yl)-1-methylhexahydropyrrolo[3,4-b]pyrrole-5(1H)-carboxamide]
26 | 0.0101 to 0.05 µM | ≤ 0.01 µM | 0.0101 to 0.05 µM | CN1CC[C@H](Oc2cc(-c3cn(C)nc3OC(F)F)cc3ncnc(Nc4ccc5ncsc5c4)c23)[C@H](F)C1 [Example 367, N-(7-(3-(difluoromethoxy)-1-methyl-1H-pyrazol-4-yl)-5-(((3R,4S)-3-fluoro-1-methylpiperidin-4-yl)oxy)quinazolin-4-yl)benzo[d]thiazol-6-amine]
27 | 0.0101 to 0.05 µM | ≤ 0.01 µM | ≤ 0.01 µM | CN1CC[C@H](Oc2cc(-c3cnn(C)c3)cc3ncnc(Nc4ccc5ncsc5c4F)c23)C1=O (single isomer, unassigned) [Example 73]
28 | ≤ 0.01 µM | ≤ 0.01 µM | ≤ 0.01 µM | COc1cn(C)nc1-c1cc(O[C@H](C)C2COC2)c2c(Nc3ccc4ncsc4c3)ncnc2c1 (single isomer, unassigned) [Example 120]
29 | 0.0101 to 0.05 µM | ≤ 0.01 µM | ≤ 0.01 µM | Cn1cc(-c2cc(O[C@@H]3CCOC3)c3c(Nc4ccc5ncsc5c4)ncnc3c2)cn1 [Example 37, (R)-N-(7-(1-methyl-1H-pyrazol-4-yl)-5-((tetrahydrofuran-3-yl)oxy)quinazolin-4-yl)benzo[d]thiazol-6-amine]
30 | ≤ 0.01 µM | ≤ 0.01 µM | ≤ 0.01 µM | Cn1cc(-c2cc3ncnc(Nc4ccc5ncsc5c4F)c3cc2OC2CCOCC2)cn1 [Example 262, 7-fluoro-N-(7-(1-methyl-1H-pyrazol-4-yl)-6-((tetrahydro-2H-pyran-4-yl)oxy)quinazolin-4-yl)benzo[d]thiazol-6-amine]
